Measurements as given in patent US20070207454A1, “Novel method to identify targets for antibiotic development” (priority 2001, published 2007).

Key:
[1] = biological target: C1 lysin (Streptococcus phage C1, UniProt Q7Y3F3); assay: Competition experiments with monosaccharides or cell wall carbohydrate extracts; format: cell-based, C1 bacteriophage; conditions: 20 mM monosaccharide
Protocol: FIG. 7 is a bar graph illustrating lysin pretreated with […] Sugar (GlcNAc for A, L-Rhamnose for AV, or GalNAc for C), or extracted Group A carbohydrate (10 mg/ml). The black marker indicates buffer pretreatment; the gray marker indicates sugar pretreatment; and the white marker indicates Group A carbohydrate pretreatment.
Competition experiments. The three groups of cells were pretreated with monosaccharide or buffer containing 20 mM monosaccharide (GlcNAc for A, L-rhamnose for AV, or GalNAc for C), or extracted Group A carbohydrate (10 mg/ml) prior to exposure to the C1 lysin.

[2] = test system: PlyG lysin; format: cell-based, γ phage of Bacillus anthracis; conditions: for blocking of PlyG's killing ability: bacillus RSVF, competition assay
[3] = test system: RSVF1; conditions: cited from earlier work

Sequence of C1 lysin (Q7Y3F3 whole entry, looked up): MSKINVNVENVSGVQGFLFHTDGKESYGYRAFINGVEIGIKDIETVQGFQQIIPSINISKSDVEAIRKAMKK

Compound: CC(=O)N[C@H]1C(O)O[C@H](CO)[C@H](O)[C@@H]1O (some centres unmarked) [GalNAc, N-acetyl-galactosamine]
- effect of competitor on lysin activity ([1]; group C cells): no decrease

Compound: C[C@H](O)[C@H](O)[C@@H](O)[C@@H](O)C=O [L-Rhamnose]
- effect of competitor on lysin activity ([1]; AV cells): no decrease

Compound: CC(=O)N[C@H]1C(O)O[C@H](CO)[C@@H](O)[C@@H]1O (some centres unmarked) [N-acetylglucosamine]
- effect of competitor on lysin activity ([1]; group A cells): no decrease
- concentration that could block the lethal action of PlyG ([2]; exponential phase RSVF1, 15 min at 37° C., CFU ml^-1, FIG. 10): ≤ 0.5 mM

Compound: CC(=O)N[C@@H]1C(O)O[C@H](CO)[C@@H](O)[C@@H]1O (some centres unmarked) [N-acetylmannosamine]
- blocking of PlyG's killing ability [2]: Neither galactose nor N-acetylmannosamine blocked

Compound: O=C[C@H](O)[C@@H](O)[C@@H](O)[C@H](O)CO [galactose]
- blocking of PlyG's killing ability [2]: Neither galactose nor N-acetylmannosamine blocked

Compound: CO[C@@H]1[C@@H](OC(N)=O)[C@@H](O)[C@H](Oc2ccc3c(O)c(NC(=O)c4ccc(O)c(CC=C(C)C)c4)c(=O)oc3c2C)OC1(C)C [novobiocin]
- increase in resistance after EMS mutagenesis [3]: 1,000 fold

Compound: [H]/N=C(/N)N[C@H]1[C@H](O)[C@@H](O)[C@H](O[C@@H]2O[C@@H](C)[C@](O)(C=O)[C@H]2O[C@@H]2O[C@@H](CO)[C@H](O)[C@@H](O)[C@@H]2NC)[C@@H](N/C(N)=N\[H])[C@@H]1O [streptomycin]
- increase in resistance after EMS mutagenesis [3]: 10,000 fold
